Data from patent publication US8404708B2, “Dual NK1/NK3 receptor antagonists” (Hoffmann-La Roche Inc., priority 2004, dated 2013).

What was measured:
human NK1 receptor = human NK1 receptor (Homo sapiens, UniProt P25103); experiment: NK1 receptor binding, [3H]substance P displacement, CHO cell membranes; details: first value of the cell pKi NK1/NK3; human NK1 receptor, [3H]substance P
[1] = target: T1, Recombinant human NK3 (hNK3) receptor (Homo sapiens, UniProt P29371); experiment: NK3 receptor binding, [3H]SR142801 displacement, membrane preparations; details: second value of the cell pKi NK1/NK3; hNK3 receptor, [3H]SR142801
T1 construct: expressed in transfected cells
T1 sequence (P29371 1-465): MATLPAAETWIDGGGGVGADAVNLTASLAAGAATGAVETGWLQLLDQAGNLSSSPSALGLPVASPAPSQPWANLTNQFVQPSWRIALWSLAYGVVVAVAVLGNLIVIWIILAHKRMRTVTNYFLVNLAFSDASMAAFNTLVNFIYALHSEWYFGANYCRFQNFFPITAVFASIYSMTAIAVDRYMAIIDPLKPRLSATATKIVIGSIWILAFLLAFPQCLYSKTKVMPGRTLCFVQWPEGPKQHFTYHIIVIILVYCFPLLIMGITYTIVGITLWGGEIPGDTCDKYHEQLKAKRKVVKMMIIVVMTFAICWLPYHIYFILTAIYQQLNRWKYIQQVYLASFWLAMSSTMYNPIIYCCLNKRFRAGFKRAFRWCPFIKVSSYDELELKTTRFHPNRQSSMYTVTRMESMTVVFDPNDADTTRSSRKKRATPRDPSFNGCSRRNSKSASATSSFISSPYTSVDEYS
How it was run: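 Incubation ran 90 min at room temperature in 50 mM Tris-HCl pH 7.4 with 0.1% BSA, 4 mM MnCl2 and 1 μM phosphoramidon, using about 2.5 μg hNK3 membrane protein per well. Nonspecific binding was defined with 10 μM SB222200, and bound radioactivity was collected on PEI-soaked GF/C filters for scintillation counting.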

Chain of human NK1 receptor (P25103 whole entry): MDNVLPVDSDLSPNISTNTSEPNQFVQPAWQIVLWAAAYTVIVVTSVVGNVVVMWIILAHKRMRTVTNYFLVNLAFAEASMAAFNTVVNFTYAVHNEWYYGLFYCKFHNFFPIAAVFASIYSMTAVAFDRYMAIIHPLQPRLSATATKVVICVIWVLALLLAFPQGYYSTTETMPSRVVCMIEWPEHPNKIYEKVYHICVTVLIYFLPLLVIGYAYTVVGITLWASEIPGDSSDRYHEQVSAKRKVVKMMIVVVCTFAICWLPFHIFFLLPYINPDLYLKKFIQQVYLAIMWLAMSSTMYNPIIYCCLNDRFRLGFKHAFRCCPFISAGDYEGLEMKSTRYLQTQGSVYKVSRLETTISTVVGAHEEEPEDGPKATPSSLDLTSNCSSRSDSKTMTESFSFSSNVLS

Structure (SMILES) | Ki (human NK1 receptor) [nM] | Ki [1] [nM]
Cc1cc(F)ccc1-c1cc(N2CCC[C@H]2CN2CCCC2)ncc1N(C)C(=O)C(C)(C)c1cc(C(F)(F)F)cc(C(F)(F)F)c1 [Example 169, (S)-2-(3,5-Bis-trifluoromethyl-phenyl)-N-[4-(4-fluoro-2-methyl-phenyl)-6-(2-pyrrolidin-1-ylmethyl-pyrrolidin-1-yl)-pyridin-3-yl]-N-methyl-isobutyramide] | 1.41 | 21.4
Cc1ccccc1-c1cc(NC[C@@H](C)O)ncc1N(C)C(=O)C(C)(C)c1cc(C(F)(F)F)cc(C(F)(F)F)c1 [Example 173, (R)-2-(3,5-Bis-trifluoromethyl-phenyl)-N-[6-(2-hydroxy-propylamino)-4-o-tolyl-pyridin-3-yl]-N-methyl-isobutyramide] | 1.91 | 1.86
Cc1ccccc1-c1cc(N2CCOC[C@H]2CO)ncc1N(C)C(=O)C(C)(C)c1cc(C(F)(F)F)cc(C(F)(F)F)c1 [Example 175] | 1.62 | 2.14
Cc1ccccc1-c1cc(N2C[C@H](O)C[C@@H](O)C2)ncc1N(C)C(=O)C(C)(C)c1cc(C(F)(F)F)cc(C(F)(F)F)c1 [Example 179, (3R,5R)-2-(3,5-Bis-trifluoromethyl-phenyl)-N-(3,5-dihydroxy-4′-o-tolyl-3,4,5,6-tetrahydro-2H-[1,2′]bipyridinyl-5′-yl)-N-methyl-isobutyramide] | 1.51 | 4.07
CN(C(=O)C(C)(C)c1cc(C(F)(F)F)cc(C(F)(F)F)c1)c1cnc(N2C[C@H](O)C[C@@H](O)C2)cc1-c1ccccc1Cl [Example 180, (3R,5R)-2-(3,5-Bis-trifluoromethyl-phenyl)-N-[4′-(2-chloro-phenyl)-3,5-dihydroxy-3,4,5,6-tetrahydro-2H-[1,2′]bipyridinyl-5′-yl]-N-methyl-isobutyramide] | 1.62 | 3.24
CN(C(=O)C(C)(C)c1cc(C(F)(F)F)cc(C(F)(F)F)c1)c1cnc(N2C[C@H](O)C[C@H](O)C2)cc1-c1ccccc1Cl [Example 181] | 2 | 3.39
CN(C(=O)C(C)(C)c1cc(C(F)(F)F)cc(C(F)(F)F)c1)c1cnc(N2C[C@H](O)[C@@H](O)C2)cc1-c1ccccc1Cl [Example 182, (3S,4S)-2-(3,5-Bis-trifluoromethyl-phenyl)-N-[4-(2-chloro-phenyl)-6-(3,4-dihydroxy-pyrrolidin-1-yl)-pyridin-3-yl]-N-methyl-isobutyramide] | 0.933 | 32.4
Cc1ccccc1-c1cc(N2C[C@H](O)[C@@H](O)C2)ncc1N(C)C(=O)C(C)(C)c1cc(C(F)(F)F)cc(C(F)(F)F)c1 [Example 183, (3S,4S)-2-(3,5-Bis-trifluoromethyl-phenyl)-N-[6-(3,4-dihydroxy-pyrrolidin-1-yl)-4-o-tolyl-pyridin-3-yl]-N-methyl-isobutyramide] | 1.1 | 26.9
Cc1cc(F)ccc1-c1cc(N2[C@H](CO)CC[C@H]2CO)ncc1N(C)C(=O)C(C)(C)c1cc(C(F)(F)F)cc(C(F)(F)F)c1 [Example 198, (2S,5S)-N-[6-(2,5-Bis-hydroxymethyl-pyrrolidin-1-yl)-4-(4-fluoro-2-methyl-phenyl)-pyridin-3-yl]-2-(3,5-bis-trifluoromethyl-phenyl)-N-methyl-isobutyramide] | 1.78 | 1.1
Cc1cc(F)ccc1-c1cc(N2[C@@H](CO)CC[C@@H]2CO)ncc1N(C)C(=O)C(C)(C)c1cc(C(F)(F)F)cc(C(F)(F)F)c1 [Example 199, (2R,5R)-N-[6-(2,5-Bis-hydroxymethyl-pyrrolidin-1-yl)-4-(4-fluoro-2-methyl-phenyl)-pyridin-3-yl]-2-(3,5-bis-trifluoromethyl-phenyl)-N-methyl-isobutyramide] | 2.51 | 15.5
Cc1ccc(-c2cc(N3C[C@H](O)C[C@H]3CO)ncc2N(C)C(=O)C(C)(C)c2cc(C(F)(F)F)cc(C(F)(F)F)c2)cc1 [Example 200, (2S,4R)-2-(3,5-Bis-trifluoromethyl-phenyl)-N-[6-(4-hydroxy-2-hydroxymethyl-pyrrolidin-1-yl)-4-p-tolyl-pyridin-3-yl]-N-methyl-isobutyramide] | 2.34 | 18.2
CN(C(=O)C(C)(C)c1cc(C(F)(F)F)cc(C(F)(F)F)c1)c1cnc(N2C[C@H](O)C[C@H]2CO)cc1-c1ccc(Cl)cc1 [Example 203, (2S,4R)-2-(3,5-Bis-trifluoromethyl-phenyl)-N-[4-(4-chloro-phenyl)-6-(4-hydroxy-2-hydroxymethyl-pyrrolidin-1-yl)-pyridin-3-yl]-N-methyl-isobutyramide] | 2.04 | 10.5

More lines, in order of falling Ki (human NK1 receptor), values ahead:

Ki (human NK1 receptor) [nM] | Ki [1] [nM] | Structure (SMILES)
7.08 | 12.9 | Cc1ccccc1-c1cc(N2CCC(CO)CC2)ncc1N(C)C(=O)C(C)(C)c1cc(C(F)(F)F)cc(C(F)(F)F)c1 [Example 172, 2-(3,5-Bis-trifluoromethyl-phenyl)-N-(4-hydroxymethyl-4′-o-tolyl-3,4,5,6-tetrahydro-2H-[1,2′]bipyridinyl-5′-yl)-N-methyl-isobutyramide]
2.88 | 3.89 | Cc1cc(F)ccc1-c1cc(N2[C@H](CO)CC[C@@H]2CO)ncc1N(C)C(=O)C(C)(C)c1cc(C(F)(F)F)cc(C(F)(F)F)c1 [Example 197, (2R,5S)-N-[6-(2,5-Bis-hydroxymethyl-pyrrolidin-1-yl)-4-(4-fluoro-2-methyl-phenyl)-pyridin-3-yl]-2-(3,5-bis-trifluoromethyl-phenyl)-N-methyl-isobutyramide]
1.74 | 4.57 | Cc1cc(F)ccc1-c1cc(N(C)C(CO)CO)ncc1N(C)C(=O)C(C)(C)c1cc(C(F)(F)F)cc(C(F)(F)F)c1 [Example 196, 2-(3,5-Bis-trifluoromethyl-phenyl)-N-{4-(4-fluoro-2-methyl-phenyl)-6-[(2-hydroxy-1-hydroxymethyl-ethyl)-methyl-amino]-pyridin-3-yl}-N-methyl-isobutyramide]
1.66 | 2.57 | Cc1cc(F)ccc1-c1cc(N2CCOC[C@H]2CO)ncc1N(C)C(=O)C(C)(C)c1cc(C(F)(F)F)cc(C(F)(F)F)c1 [Example 174, (R)-2-(3,5-Bis-trifluoromethyl-phenyl)-N-[4-(4-fluoro-2-methyl-phenyl)-6-(3-hydroxymethyl-morpholin-4-yl)-pyridin-3-yl]-N-methyl-isobutyramide]
1.48 | 8.71 | CN(C(=O)C(C)(C)c1cc(C(F)(F)F)cc(C(F)(F)F)c1)c1cnc(N2C[C@H](O)C[C@H]2CO)cc1-c1ccccc1 [Example 201, (2S,4R)-2-(3,5-Bis-trifluoromethyl-phenyl)-N-[6-(4-hydroxy-2-hydroxymethyl-pyrrolidin-1-yl)-4-phenyl-pyridin-3-yl]-N-methyl-isobutyramide]
1.23 | 20 | Cc1ccccc1-c1cc(N2C[C@@H](O)[C@@H](O)C2)ncc1N(C)C(=O)C(C)(C)c1cc(C(F)(F)F)cc(C(F)(F)F)c1 [Example 184, (3R,4S)-2-(3,5-Bis-trifluoromethyl-phenyl)-N-[6-(3,4-dihydroxy-pyrrolidin-1-yl)-4-o-tolyl-pyridin-3-yl]-N-methyl-isobutyramide]
1.2 | 7.41 | CN(C(=O)C(C)(C)c1cc(C(F)(F)F)cc(C(F)(F)F)c1)c1cnc(N2C[C@H](O)C[C@H]2CO)cc1-c1ccc(F)cc1 [Example 202, (2S,4R)-2-(3,5-Bis-trifluoromethyl-phenyl)-N-[4-(4-fluoro-phenyl)-6-(4-hydroxy-2-hydroxymethyl-pyrrolidin-1-yl)-pyridin-3-yl]-N-methyl-isobutyramide]
